Test results: patent US4235803A (priority 1978, dated 1980)
Like-named read-outs stand apart in the source and are kept apart here.

Tests used:
Harding-Passey melanoma = test: Tumor inhibiting effect on solid tumors: Harding-Passey melanoma; assay type: in vivo, mouse; conditions: treatment from 4th day after transplantation
Experimental: (§1) Our tests were performed on various transplantable mouse and rat tumors. The following tumor strains were applied:
Harding-Passey melanoma
(§2) The tests were always performed on animals of both sexes. At the beginning of the tests the average body weight of mice was 20 to 22 g, whereas that of rats 150 to 180 g. The animals were kept in plastic cages and fed with a standard laboratory animal feed (LATI, Godollo, Hungary). The animals received water ad libitum.
(§3) Solid tumors were transplanted by a subcutaneous implantation of tumor chips. Ascites type tumors were transplanted with 10^7 cells received from the ascites, whereas leukaemia type tumors were transplanted with spleen suspension. The treatment of the animals was started 24 hours after transplantation, with the only exception of Harding-Passey melanoma, when treatment was started on the 4th day after transplantation.
(§4) *Performed on groups of 8 animals

Ehrlich asc. carcinoma = test: Tumor inhibiting effect on ascites type tumors: Ehrlich ascites carcinoma; assay type: in vivo, mouse
Experimental: as §1, §2, §3
Healing=tumor-free survival of 90 days after transplantation

[1] = system: Walker sc. carcino-sarcoma; test: Tumor inhibiting effect on solid tumors: Walker sc. sarcoma; assay type: in vivo, rat; conditions: 10 mg/kg
Experimental: as §1
Walker sc. carcino-sarcoma
as §2, §3, §4

[2] = Acute toxicity (LD50) on CFLP and BDF1 mice; conditions: mouse, in vivo
Experimental: (§5) The tests were performed on groups consisting of 10 mice (5 males and 5 females), and the animals were kept under observation for 3 weeks.

CFLP and BDF1 mice [3] = test: Acute toxicity (LD50) on CFLP and BDF1 mice; conditions: in words
Experimental: as §5

NK/Ly lymphoma [4] = test: Tumor inhibiting effect on ascites type tumors: NK/Ly lymphoma; assay type: in vivo, mouse; conditions: 30 mg/kg, 4 × i.p.
Experimental: as §1, §2, §3

Yoshida sc. sarcoma = test: Comparison of the ED50 values on Yoshida sc. sarcoma of rats (transplanted solid tumor); assay type: in vivo, rat; conditions: for ED50: Rattus norvegicus, Yoshida sc. sarcoma of rats; for Relative activity: calculated by comparing the ED50 values
Experimental: as §1
Rat: Yoshida sc. sarcoma
as §2, §3

S-180 sc. sarcoma [5] = test: Tumor inhibiting effect on solid tumors: S-180 sc. sarcoma; assay type: in vivo, mouse
Experimental: as §1
Mouse: SC-180 sc. sarcoma (solid)
as §2, §3, §4

[6] = system: transplantable mouse and rat tumors; test: Cytostatic effect / growth inhibition on transplantable mouse and rat tumors (overall statements); assay type: in vivo; conditions: in words
Experimental: as §1, §2, §3

CFLP and BDF1 mice [7] = conditions: same animals, Nemeth et al. 1972, cited from earlier work
[8] = system: Walker sc. carcino-sarcoma; conditions: 100 mg/kg, 6 × i.p.; cited from earlier work
NK/Ly lymphoma [9] = conditions: 125 mg/kg, 6 × i.p.; cited from earlier work
[10] = system: peripheral blood count (granulocytes, lymphocytes); test: Effect on peripheral blood count of rats (haematopoiesis); conditions: reference substances; in words
S-180 sc. sarcoma [11] = conditions: 200 mg/kg, 8 × i.p.; cited from earlier work

With `CO[C@@H]([C@H](OC)[C@H](O)COS(C)(=O)=O)[C@H](O)COS(C)(=O)=O` [compound of formula (I), 1,6-dimesyl-3,4-dimethyl-D-mannitol] the Inhibition (Harding-Passey melanoma; 30 mg/kg, 10 × p.o.) was 31, the Inhibition (Harding-Passey melanoma; 100 mg/kg, 10 × p.o.) was 52 and the “Prol. of life span” value (Ehrlich asc. carcinoma; 100 mg/kg, 4 × i.p.) was 99.6%. For the same compound, the “effect on Ehrlich ascites tumor” value (Ehrlich asc. carcinoma; in words) was “healing effect”, the Inhibition ([1]; 5 × i.p.) was 90 and the Inhibition ([1]; 5 × p.o.) was 97. The LD50 at 504 h ([2]; ip) was 1000 mg/kg, the LD50 at 504 h ([2]; po) was 1100 mg/kg and the toxicity (CFLP and BDF1 mice [3]) was “low toxicity”. The oral resorption (CFLP and BDF1 mice [3]; inferred from i.p. vs oral LD50) was “excellent oral resorption”, the “Prol. of life span” value (NK/Ly lymphoma [4]) was 101% and the ED50 (Yoshida sc. sarcoma; ip) was 20 mg/kg. For the same compound, the ED50 (Yoshida sc. sarcoma; po) was 70 mg/kg, the Inhibition (S-180 sc. sarcoma [5]; 100 mg/kg, 4 × p.o.) was 50 and the Inhibition (S-180 sc. sarcoma [5]; 200 mg/kg, 6 × p.o.) was 70. The cytostatic effect [6] was “strong cytostatic effect”, the “cytostatic effect compared with Mannogranol, Myelobromol and Elobromol” value [6] was “even more effective” and the cytostatic effect ([6]; listed as 1,6-dimesyl-3,4-dimethyl-D-mannitol) was “extremely potent cytostatic agent”. For the same compound, the “inhibition of the growth of solid tumors” value ([6]; solid tumors, even in very low dosages compared to the toxic one) was “significantly inhibits the growth of solid tumors”.
In the case of `CS(=O)(=O)OC[C@@H](O)[C@@H](O)[C@H](O)[C@H](O)COS(C)(=O)=O` [1,6-Dimesyl-D-mannitol (Mannogranol), 1,6-dimesyl-D-mannitol], the ED50 (Yoshida sc. sarcoma; ip) is reported as 500 mg/kg and the ED50 (Yoshida sc. sarcoma; po) is reported as 600 mg/kg.
For `O[C@H]([C@H](O)[C@@H](O)CBr)[C@H](O)CBr` [1,6-dibromo-1,6-dideoxy-dulcitol], the LD50 value (CFLP and BDF1 mice [7]; i.p.) is given as 900 mg/kg, the LD50 value (CFLP and BDF1 mice [7]; p.o.) is given as 1500 mg/kg and the Inhibition [8] is given as 95. For the same compound, the Inhibition (Harding-Passey melanoma; 200 mg/kg, 13 × i.p.) was 67, the “Prol. of life span” value (NK/Ly lymphoma [9]) was 90% and the ED50 (Yoshida sc. sarcoma; ip) was 50 mg/kg. For the same compound, the Relative activity (Yoshida sc. sarcoma; i.p.) was 0.4, the “effect on haematopoiesis (formation of myeloid leukocytes)” value [10] was “rather strong and selective action on the formation of myeloid leukocytes” and the Inhibition (S-180 sc. sarcoma [11]) was 57.
For “1,6-dimesyl-1,6-dideoxy-D-mannitol [reference compound]”, the Inhibition (S-180 sc. sarcoma [5]; 300 mg/kg, 6 × i.p.) was 31 and the “Inhibition (toxicity reported in this column)” value (S-180 sc. sarcoma [5]; 500 mg/kg, 6 × i.p.) was “toxic”.
With `O[C@@H]([C@H](O)[C@H](O)CBr)[C@H](O)CBr` [1,6-dibromo-1,6-dideoxy-D-mannitol] the ED50 (Yoshida sc. sarcoma; ip) was 490 mg/kg, the ED50 (Yoshida sc. sarcoma; po) was 170 mg/kg and the Relative activity (Yoshida sc. sarcoma; i.p.) was 0.04. For the same compound, the Relative activity (Yoshida sc. sarcoma; p.o.) was 0.41 and the “effect on haematopoiesis (formation of myeloid leukocytes)” value [10] was “rather strong and selective action on the formation of myeloid leukocytes”.
